Test [1] relates to Ndc80c^dwarf Nuf2 F8A P9A. In words: Fluorescence polarization direct binding to Ndc80c^dwarf bearing Nuf2 F8A P9A. The arrangement: species or system S. cerevisiae. The following applies: Ndc80c^dwarf Nuf2 F8A P9A relative to wild-type Ndc80c^dwarf; Figure 3D. As for the experimental part: (§1) Figure 3. Fluorescence polarization measurements of Ndc80c^dwarf binding peptides from the N-terminal extensions of Mps1 and Ipl1. (A) Polarization of fluorescence from 20 nM Bodipy-FL Mps1(137–171) (Mps1 residues 137–171 plus a C-terminal cysteine modified with Bodipy-FL -- see Methods) and Bodipy-FL Ipl1 (26–39;45–59) as a function of Ndc80c^dwarf concentration. (B) Competition binding experiment: unlabeled competitor peptides (see figure annotation) were added in twofold serial dilutions to Bodipy-FL Mps1(137–171) and Ndc80c^dwarf at final concentrations of 20 nM and 500 nM respectively. Loss of polarization indicates displacement of bound Bodipy-FL Mps1(137–171) by the competitor. (C) As in (B), with competitor Mps1(137–171) peptides containing mutations that reduce affinity for Ndc80c[40]. (D) Polarization of fluorescence from 20 nM Bodipy-FL Mps1(137–171) as a function of the concentration of Ndc80c^dwarf bearing mutations in Nuf2 that interfere with its Mps1 interaction in cells. […] For the Ipl1 peptide, the second copy of the motif, not used for the fluorescence polarization experiments, is shown in the bottom line.
(§2) We also determined the binding of the Mps1 peptide with two Ndc80c^dwarf constructs bearing mutations characterized in the other accompanying paper -- N128A and F8A P9A[48]. […]

A further test deals with Ndc80c^dwarf Nuf2 N128A. The test is described as follows: Fluorescence polarization direct binding to Ndc80c^dwarf bearing Nuf2 N128A. The arrangement: species or system S. cerevisiae. The note with it: Ndc80c^dwarf Nuf2 N128A relative to wild-type Ndc80c^dwarf; Figure 3D. As for the experimental part:
as §1, §2
A general note: In fluorescence polarisation assays a small probe gives low polarisation when free and higher when bound to something large.

For the next test, the system named is Ndc80c^dwarf. The test is described as follows: Pulldown of GST-fusions of Mps1 segments by Ndc80c^dwarf immobilized on Ni-NTA agarose. The following applies: 6-His Ndc80c^dwarf on Ni-NTA agarose, 30 min incubation, SDS-PAGE read-out; Figure 1B lane 12. The test is classed as binding, S. cerevisiae. An excerpt: The long, N-terminal extension (residues 1–430) of yeast Mps1 has no immediately evident homology with sequences in metazoan Mps1 shown to interact with Ndc80c. […] We examined conservation among the yeast orthologs by iterative searches with the program Jackhmmer[50]. Using the N-terminal 430 residues of S. cerevisiae Mps1 as query, we identified five segments conserved among point-centromere yeasts (Figure 1A). We carried out a set of pulldown experiments, expressing them as GST-fusions and incubating them with the “dwarf” Ndc80c construct (Ndc80c^dwarf)[51] immobilized on Ni-NTA agarose (Figure 1B). In this format, we expected avidity from GST dimerization and multivalent display of Ndc80c to enhance the assay sensitivity. Ndc80c captured only the GST fusion of a peptide containing residues 151–171 (Figure 1B, lane 12), which include the most conserved region with a consensus sequence (151)RRxRRF(I/L/F)(3–4x)RxxxLGPAxR(170)(Figure 1C). Lysine appears occasionally in place of arginine, except for the invariant R at the end of the motif. […]
Figure 1. […] The bar graph above the N-terminal domain represents conservation determined by iterative searches with Jackhmmer[50] and shown as “information content”, defined in ref[68]. […]

No end group written: not given here. *: point of attachment. BODIPYFLEthylmaleimide = Cc1cc(C)n2c1C=C1C=CC(CCC(=O)NCCN3C(=O)CC(*)C3=O)=[N+]1[B-]2(F)F

Data on two substances can be found in paper PMC11847324, “A communication hub for phosphoregulation of kinetochore-microtubule attachment” (Current biology : CB, 2024).

Ndc80c^dwarf Nuf2 N128A, sequence (P40460 115-315 limits assumed): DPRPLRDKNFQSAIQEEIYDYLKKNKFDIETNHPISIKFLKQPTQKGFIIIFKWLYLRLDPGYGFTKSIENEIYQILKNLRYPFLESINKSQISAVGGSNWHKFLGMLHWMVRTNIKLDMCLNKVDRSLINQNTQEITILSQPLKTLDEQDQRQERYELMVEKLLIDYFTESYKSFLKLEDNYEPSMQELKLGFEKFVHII
Ndc80c^dwarf Nuf2 N128A, sequence (P33895 1-158 N128A limits assumed, further chain): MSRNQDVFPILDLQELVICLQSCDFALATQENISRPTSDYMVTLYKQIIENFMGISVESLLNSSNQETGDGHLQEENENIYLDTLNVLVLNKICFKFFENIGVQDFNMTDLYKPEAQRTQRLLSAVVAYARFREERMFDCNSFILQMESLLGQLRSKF
Ndc80c^dwarf Nuf2 F8A P9A, sequence (P40460 115-335 limits assumed): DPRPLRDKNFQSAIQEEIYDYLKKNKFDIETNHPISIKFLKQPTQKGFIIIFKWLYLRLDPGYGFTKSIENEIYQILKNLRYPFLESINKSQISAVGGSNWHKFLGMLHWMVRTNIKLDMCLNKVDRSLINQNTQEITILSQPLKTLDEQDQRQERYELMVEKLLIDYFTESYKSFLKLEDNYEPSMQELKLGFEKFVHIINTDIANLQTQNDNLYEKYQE
Ndc80c^dwarf Nuf2 F8A P9A, sequence (P33895 1-173 F8A/P9A limits assumed, further chain): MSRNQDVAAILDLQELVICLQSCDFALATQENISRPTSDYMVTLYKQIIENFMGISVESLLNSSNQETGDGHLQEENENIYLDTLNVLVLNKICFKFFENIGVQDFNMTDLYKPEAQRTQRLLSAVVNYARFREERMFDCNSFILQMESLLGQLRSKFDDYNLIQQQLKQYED
Ndc80c^dwarf, sequence (P33895 1-150): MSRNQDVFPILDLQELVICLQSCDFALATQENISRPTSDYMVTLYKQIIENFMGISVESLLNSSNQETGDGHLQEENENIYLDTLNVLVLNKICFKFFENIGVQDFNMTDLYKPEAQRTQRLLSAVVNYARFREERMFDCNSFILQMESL
Ndc80c^dwarf, sequence (P40460 115-310, further chain): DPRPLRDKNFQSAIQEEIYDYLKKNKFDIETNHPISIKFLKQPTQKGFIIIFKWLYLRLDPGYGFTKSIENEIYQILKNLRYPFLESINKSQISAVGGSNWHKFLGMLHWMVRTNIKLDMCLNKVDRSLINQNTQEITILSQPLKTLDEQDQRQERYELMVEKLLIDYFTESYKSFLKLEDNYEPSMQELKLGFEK

“Bodipy-FL Mps1(137–171): Mps1 residues 137–171 plus a C-terminal cysteine modified with Bodipy-FL (RQNMKEDITAKYAERRSKRFLISNRTTKLGPAKRAC(BODIPYFLEthylmaleimide))”: the “affinity weaker than for the wild-type protein” value (in test [1]; in the test on Ndc80c^dwarf Nuf2 N128A) was “about 2 logs” throughout.

Turning to “GST fusion of a peptide containing residues 151–171: GST-fusion of Mps1 residues 151–171 expressed from pGEX-6P1 (GSGGSGGSGGSGGSERRSKRFLISNRTTKLGPAKR; also: GST fusion, end not given here)”, the “capture of GST fusion by immobilized Ndc80c^dwarf” value in the test with Ndc80c^dwarf is recorded as “captured”.
